From patent US20250281465A1, “MOLECULES THAT ENHANCE EXTRACELLULAR VESICLE RELEASE” (priority 2022, published 2025)
“Also recorded” adds a separate entry of the source.

Key:
[1] = tested on: THP-1 cells; assay: Intracellular Ca2+ influx screening (Fura-2) in THP-1 cells; format: cell-based, human
Method: (§1) FIGS. 1A-1D. Intracellular Ca^2+ influx screening of 84 HTS hit candidate compounds. (A) THP-1 cells were loaded with the ratiometric Ca^2+ indicator, Fura-2, and treated with lonomycin (ION, 1 μM), Thapsigargin (1 μM), or 84 hit candidate compounds (10 μM) for 25 minutes. Data are presented as the area under the curve (AUG) of OD340/380 ratios corresponding to the intracellular Ca^2+ kinetics. The baseline-subtracted AUG was calculated using GraphPad Prism (GraphPad Software, San Diego, CA). (B) Ca^2+ mobilization by compound #634. mBMDCs were loaded with the ratiometric Ca^2+ indicator, Fura-8, and treated with ION (1 μM), or #634 (2 and 10 μM) for 25 minutes. The dashed line indicates the timing of compounds added. The data shown are representative of three independent experiments showing similar results. (C) Ca^2+ add-back assay. Fura-8-loaded mBMDC were treated with ION (1 μM), or compound #634 (2 μM, 10 μM) for 15 minutes in the absence of extracellular Ca^2+, and then Ca^2+ (final 1.8 mM) was added at 15 minutes. Data shown are representative of three independent experiments showing similar results. (D) C57BL/6 mice (n=5/group) were intramuscularly immunized with ovalbumin (OVA, 20 μg/mouse) adjuvanted with compound #634 (200 nmol/mouse), or Veh (10% DMSO) on days 0 and 21 and bled on day 28. OVA-specific IgGI and IgG2c levels in sera were determined by ELISA. **p<0.01, ***p<0.001, ns (not significant) by KruskalWallis tests with Dunn's post hoc test vs. Veh.
FIGS. 18A-18C. Compound 634 induces intracellular Ca^2+ levels in mBMDCs. […] The time-response pattern of intracellular Ca^2+ levels was recorded for 25 minutes. AUC of OD340/380 ratios corresponds to the intracellular Ca^2+ kinetics, and the baseline-subtracted AUC was calculated by GraphPad Prism. […]
FIGS. 24A-24B. […] The time-response pattern of intracellular Ca^2+ levels was recorded with a plate reader for 25 minutes. (A) The AUC of OD340/380 ratios corresponds to the intracellular Ca^2+ kinetics and the baseline-subtracted AUC was calculated by GraphPad Prism (FIG. 36). […]

[2] = tested on: mBMDCs; assay: Intracellular Ca2+ influx (Fura-2/Fura-8) in mBMDCs; format: cell-based, mouse; conditions: for intracellular Ca^2+ influx in mBMDCs (Fura-8): 2 and 10 μM, 25 minutes
[3] = tested on: mBMDC; assay: Ca2+ add-back assay in mBMDC; format: cell-based, mouse; conditions: for intracellular Ca^2+ after adding Ca^2+ in the medium: Ca^2+ 1.8 mM added at 15 minutes; for intracellular Ca^2+ level without extracellular Ca^2+: Fura-8-loaded mBMDC, 2 μM, 10 μM, 15 minutes, absence of extracellular Ca^2+
Method: as §1
FIGS. 18A-18C. Compound 634 induces intracellular Ca^2+ levels in mBMDCs. (A) Intracellular Ca^2+ influx levels of the top eight compounds. THP-1 cells were loaded with the ratiometric Ca^2+ indicator, Fura-2, and treated with ION (1 μM), TG (1 μM), or test compounds (5 μM). The time-response pattern of intracellular Ca^2+ levels was recorded for 25 minutes. AUC of OD340/380 ratios corresponds to the intracellular Ca^2+ kinetics, and the baseline-subtracted AUC was calculated by GraphPad Prism. […] (B) Ca^2+ mobilization by compounds 456 and 634 in mBMDCs. mBMDCs were loaded with Fura-8 and treated with ION (1 μM), or 634 and 456 (10 μM) for 25 minutes. The dashed line indicates the timing of compounds added. The data shown are representative of three independent experiments showing similar results. (C) Ca^2+ add-back assay. Fura-8-loaded mBMDC were treated with ION (1 μM) or compound 634 (2 μM, 10 μM) for 15 minutes in the absence of extracellular Ca^2+, and then Ca^2+ (final 1.8 mM) was added at 15 minutes. The data shown are representative of three independent experiments showing similar results.

[4] = tested on: mBMDCs; assay: EV release from mBMDCs (differential ultracentrifugation, MRPS); conditions: for number of EV particles released in the culture supernatant: 46-48 h, vs Veh

| SMILES | intracellular Ca^2+ increase (Fura-2 assay) ([1]; hit candidate compounds 10 μM, 25 minutes, vs vehicle control (DMSO)) | intracellular Ca^2+ influx in mBMDCs (Fura-8) [2] | time intracellular Ca^2+ increase was sustained ([2]; Fura-8 assay) | intracellular Ca^2+ after adding Ca^2+ in the medium [3] | intracellular Ca^2+ level without extracellular Ca^2+ [3] | release of particles of diameter less than 150 nm ([4]; 10 μM) | number of EV particles released in the culture supernatant ([4]; 10 μM) | intracellular Ca^2+ (relative AUC of OD340/380) ([1]; validation assay, 5 μM, vs Veh 0.5% DMSO) | intracellular Ca^2+ influx by 634 and its SAR analogs (Fura-2) ([2]; 10 μM, vs Veh 0.5% DMSO / #634) | increase of the number of EVs released compared to Veh control ([4]; 634 10 μM, 48 hours, p<0.05) |
| --- | --- | --- | --- | --- | --- | --- | --- | --- | --- | --- |
| CCOC(=O)c1c(NS(=O)(=O)c2cccc3c2N=S=N3)sc(C)c1C [#634, ethyl 2-(benzo[c][1,2,5]thiadiazole-4-sulfonamido)-4,5-dimethylthiophene-3-carboxylate] | higher intracellular Ca^2+ increase than vehicle control | rapidly increased intracellular Ca^2+ | at least 25 min | intracellular Ca^2+ influx was restored | did not increase intracellular Ca^2+ levels without extracellular Ca^2+ | significantly enhanced | increased the number of EV particles released | – | – | – |
| CCOC(=O)c1c(NS(=O)(=O)c2cccc3nsnc23)sc(C)c1C [compound 634, Ethyl 2-(benzo[c][1,2,5]thiadiazole-4-sulfonamido)-4,5-dimethylthiophene-3-carboxylate] | – | induced Ca^2+ influx in mBMDCs; also recorded: comparable to ionomycin | – | intracellular Ca^2+ levels were restored | did not change the intracellular Ca^2+ concentration | – | significantly increased the number of EVs released | significantly increased intracellular Ca^2+ | Ca^2+ influx positive | 45% |
